Results as given in patent publication US20100105746A1, “METHOD FOR TREATING METABOLIC DISEASES” (priority 2008, published 2010).
Several values for one entry are separate records, joined by “and”; a condition that tells them apart may be missing. Equal values may be shown once.

How the values were obtained:
[1] = Body weight, food consumption and liver weight in diet-induced obese (DIO) rat model (Example 4); assay type: in vivo
Experimental: Male Sprague-Dawley rats were acclimated for 7 weeks on a high-fat diet before commencement of dose administration, and maintained on the same diet throughout the subsequent dosing period of 23 days. The high-fat diet (D12492 commercially available from Research Diets, Inc., New Brunswick, N.J.) was one in which at least 60% of calories are derived from fat.
Dose levels of gemfibrozil (50 mg/kg) and sibutramine (10 mg/kg) were selected based on published reports. All treatments were administered once daily by oral gavage in 10 ml vehicle. A vehicle-only control was also administered. Each treatment group consisted of 10 animals.
Body weight of each animal was measured weekly during the 7-week acclimation period and five times weekly during the 23-day dosing period. Food consumption was recorded twice weekly during the 7-week acclimation period and five times weekly during the 23-day dosing period.
Animals were sacrificed and liver weights measured at conclusion of the study.

[2] = Terminal fasting serum glucose and lipids in rats with diet-induced obesity (Example 6); assay type: in vivo, rat; details: DIO rats, vs vehicle control
Experimental: As part of the study described in Example 4, a terminal blood sample (0.5 ml whole blood in EDTA) was collected on day 24, after a 12-18 hour fast. Whole blood was processed to serum, and analyzed for glucose, total cholesterol, HDL cholesterol, free fatty acids and total triglycerides.

[3] = Oral glucose tolerance test (OGTT) in rats with diet-induced obesity (Example 5); assay type: in vivo, rat; details: for Glucose concentration excursion (baseline to maximum) / Glucose concentration maximum: OGTT day 21, DIO rats; for Time to maximum (glucose concentration): OGTT day 21, dextrose 2 g/kg
Experimental: As part of the study described in Example 4, an oral glucose tolerance test (OGTT) was performed on day 21 of the dosing period, after a 2-4 hour fast. Dextrose (2 g/kg) was administered by oral gavage. Blood for glucose analysis was collected at 0, 15, 30, 60, 120 and 180 minutes after dextrose administration. At each time point, 0.25 ml whole blood was collected in EDTA, processed to plasma, and analyzed for blood glucose with a low-volume glucose kit.

[4] = Plasma lipids, lipoproteins and liver weight in normal rats versus fibrates (Example 8); assay type: in vivo, rat; details: once daily p.o. 7 days, approximation
Excerpt: The study design was based on the protocols used in Examples 1-3. Male Sprague-Dawley rats were provided normal chow ad libitum, both before and during the study period. […] Six rats were assigned to each treatment group (8 to the vehicle control). The study terminated on the day following administration of the seventh dose (day 8), with terminal blood collected for plasma lipid and lipoprotein analyses including LC-MS-based determination of lipid profiles, total and free cholesterol analyses, and lipoprotein cholesterol determinations (VLDL, LDL and HDL).
In order to elucidate the impact of romazarit on plasma lipoproteins, an ultraviolet (UV) size exclusion chromatography (SEC) system was used to separate plasma into broad lipoprotein-containing fractions that were based on relative retention times of human VLDL (very low density lipoprotein), LDL (low density lipoprotein), and HDL (high density lipoprotein) standards. These fractions were collected for cholesterol assays and the UV chromatograms were integrated to provide relative quantitation of the three lipoprotein types. It is important to note that since the UV absorbance measurement is not specific for lipoproteins and may also derive from other plasma constituents that co-elute with a particular lipoprotein, the relative quantitation data reported here is an approximation. The HDL fraction in particular may have included such co-eluting species, as evidenced by the relatively high integrated area values for this fraction.

[5] = DIO rats, 10 mg/kg once daily p.o.

## CC(C)CC(N(C)C)C1(c2ccc(Cl)cc2)CCC1 (stereo not shown) [sibutramine]
[1]; [5]
  day by which food consumption returned to levels comparable to the vehicle control: ≤ 8 days
  time of minimum food consumption: ≤ 2 days
[1]; DIO rats, 10 mg/kg once daily p.o., 23 days
  body weight: significant weight loss
[1]; DIO rats, 10 mg/kg once daily p.o., conclusion of the study
  liver weight: No increase in liver weight
[2]; day 24, 10 mg/kg once daily
  terminal (total) cholesterol levels: no effect
  terminal HDL levels: no significant effect
  terminal fasting levels of triglycerides: significant reduction
  terminal fasting serum glucose: significant decrease
  terminal levels of free fatty acids: no effect
[3]; OGTT day 21, 0 minutes, DIO rats, 10 mg/kg
  Glucose concentration baseline: 126.9 mg/dL
[3]; 10 mg/kg
  Glucose concentration excursion (baseline to maximum): 74.4 mg/dL
  Glucose concentration maximum: 201.3 mg/dL
[3]; DIO rats, 10 mg/kg
  Time to maximum (glucose concentration): 30 min

## Cc1ccc(C)c(OCCCC(C)(C)C(=O)O)c1 [gemfibrozil]
[4]
  VLDL (UV size exclusion chromatography, relative quantitation): similarly significant effect
[1]; DIO rats, 50 mg/kg once daily p.o., dosing period
  food consumption: No significant effect
[1]; DIO rats, 50 mg/kg once daily p.o., throughout the dosing period
  body weight: no significant effect
[1]; rat, in vivo, po, 50 mg/kg
  liver weight: Increased liver weight
[2]; day 24, 50 mg/kg once daily
  terminal (total) cholesterol levels: significantly increased
  terminal HDL levels: significantly increased
  terminal fasting levels of triglycerides: significant reduction
  terminal fasting serum glucose: did not result in a significant decrease
  terminal levels of free fatty acids: significant increase
[3]; 50 mg/kg
  Glucose concentration excursion (baseline to maximum): 110.0 mg/dL and 111.0 mg/dL
  Glucose concentration maximum: 264.9 mg/dL
[3]; DIO rats, 50 mg/kg
  Time to maximum (glucose concentration): 30 min
